From publication PMC10830420, “Structures, functions and adaptations of the human LINE-1 ORF2 protein” (Nature, 2023)
“Also recorded” adds a separate entry of the source.

Experiments:
Assay type in all cases: cell-based, human
[1] = test system: L1 retrotransposition reporter in HeLa cells; test: LINE-1 dual luciferase retrotransposition assay in HeLa cells; details: Homo sapiens; HeLa cells, stable dual luciferase L1 reporter, normalized to cell viability; n = 3 wells; read-out: IC50
[2] = test system: interferon production in THP1 cells; test: Interferon reporter assay in THP1 cells (secreted luciferase); details: 50 µM; THP1 cells, 1 µM decitabine
Procedure: Culture Collection ( AT CC); THP1-Dual and THP1- Dual KO-TREX1 cells were from InvivoGen. All cell lines were maintained at 37 °C and 5% CO2 and validated and tested for mycoplasma. All plasmids and affinity reagents are described in Supplementary Tables 4-5 , respectively and available from Addgene at https://www.addgene.org/browse/article/28243724/. […]
Interferon reporter assay in THP1 cells
The type I interferon response was evaluated using THP1 -Dual and THP1-Dual KO-TREX1 cells (InvivoGen), which secrete a Lucia luciferase reporter gene under control of an interferon- responsive promoter. THP1-Dual KO-TREX1 cell were generated by stable biallelic knock-out of the TREX1 gene. Cell were treated with a dose titration of test compound in the presence of 1 µM 5- aza-2ʹ-deoxycytidine (decitabine, Sigma, #189825), which de- represses LINE-1121. Type 1 Interferon and cell viability were assessed after five days of treatment. QUANTI-LUC solution containing stabilizer was added to the cell supernatant and luminescence was measured on a p la t e reader, and cells were assessed for cell viability using CellTiter-Glo (Promega, #G9683) according to the manufacturer’s instructions.
LINE-1 dual luciferase retrotransposition assay
To assess the potency of inhibiting LINE-1 retrotransposon, a stable clonal dual luciferase L1 reporter cell line was generated and reported as described130,133 in the HeLa Tet-On 3G cell line (Takara, ). SB100x161 was used to integrate pRT006.2, a vector similar to pYX056 130 , which contains a bi-directional Tet-On promoter expressing both control Renilla luciferase and LINE-1 ORFeus-Hs Firefly luciferase antisense intron (AI) r epor t er 79,162. A single cell clone was selected with the highest doxycycline-induced luciferase signal vs baseline. Cells were mixed with compounds and induced for reporter expression with 500 ng/mL doxycycline (Sigma, #D9891) for 72 hours. Luminescence was measured using the Dual-Glo Luciferase Assay System (Promega, #E2940) following the manufacturer’s instructions, and the ratio of Firefly to Renilla Luciferase activity was used to measure […]
Telomerase activity assay
The human telomerase assay was performed with telomerase in MCF- 7 cell lysates using the Telo TAGGG Telomerase PCR ELISAplus kit (Roche). Test compounds (NTPs) were serially diluted in water, mixed with 0.2 µg of M CF- 7 lysate, and pre- incubated at room temperature for 15 minutes. Then the reaction was carried out for 30 minutes, amplified using PCR, and visualized colorimetrically per t he manufacturer’s instructions.
(§1) Cells were lysed in ice cold RIPA buffer containing 1x protease inhibitor tablet (Thermo), centrifuged for 10 minutes, and clarified lysates were quantified by BCA assay. […]

[3] = test system: cytosolic RNA:DNA hybrids in L1-transfected HeLa and U2-OS cells; test: LINE-1 and RNA:DNA hybrid immunofluorescence; details: 50 µM, added at the time of transfection, 24 h
Procedure: Constructs all include C-terminal 3C-3xFlag tag on ORF2p and are synthetic ORFeus-Hs[63] sequence except where L1RP is indicated (L1 retinitis pigmentosa locus, AF148856, pLD564[17]). Cells were fixed in methanol and stained 24 h post transfection with the indicated constructs. Images are representative from 4 independent experiments. D4T RTI treatment is 50 µM, added at the time of transfection.
Culture Collection ( AT CC); THP1-Dual and THP1- Dual KO-TREX1 cells were from InvivoGen. All cell lines were maintained at 37 °C and 5% CO2 and validated and tested for mycoplasma. All plasmids and affinity reagents are described in Supplementary Tables 4-5 , respectively and available from Addgene at https://www.addgene.org/browse/article/28243724/.
LINE-1 and RNA:DNA hybrid immunofluorescence […]
induced using 200 µM IPTG overnight at 16°C, purified by sequential Ni-NTA affinity, heparin affinity, and gel filtration, and the monodisperse fraction was concentrated to 7 mg/ml. 150,000 HeLa or U2OS cells were plated on 22 mm glass coverslips in 6-well dishes and transfected with 2 µg of plasmid DNA using Lipofectamine 3000 (Thermo) according to the manufacturer’s instructions, with or without 50 µM d4T. […]
as §1

SMILES: Cc1cn([C@H]2C=C[C@@H](CO)O2)c(=O)[nH]c1=O [d4T, stavudine]
- IC50 [1]: 3.1 µM
- baseline and decitabine-induced IFN production [2]: reduced
- formation of cytosolic RNA:DNA hybrids [3]: ablated; also recorded: inhibited
